Source: patent publication US7674807B2, “Heterocycle-substituted n-phenyl-phthalamide derivatives, related compounds and their use as insecticides” (Bayer CropScience AG, priority 2004, dated 2010)

Legend:
Assay type in all cases: in vivo
[1] = system: larva of Spodoptera litura; assay: Test against larva of Spodoptera litura (leaf dip, sweet potato leaves); conditions: 20 ppm concentration of the active component; third instar larvae; counted after 7 days; 25° C.
Outline: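 Sweet potato leaves were dipped in emulsified compound diluted with water, air-dried, and given to 10 third-instar larvae per dish at 25° C, with fresh leaves added on days 2 and 4. Mortality was counted after 7 days and averaged over 2 dishes.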

[2] = system: larva of Cnaphalocrocis medinalis Guenee; assay: Test against larva of Cnaphalocrocis medinalis Guenee (sprayed paddy rice foliage); conditions: 20 ppm concentration of the active component; second instar larvae; counted after 7 days; 25° C.
Outline: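 Potted rice (Tamanishiki) sprayed with aqueous dilutions of compound at the prescribed concentration; air-dried leaf pieces placed in dishes with five 2nd-instar larvae at 25° C, fresh treated foliage added at days 2 and 4. Mortality counted at day 7, averaged over 2 dishes.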

[3] = system: Myzus persicae resistant to organophosphorous agents and carbamates; assay: Test against Myzus persicae resistant to organophosphorous agents and carbamates (spray on eggplant seedlings); conditions: 100 ppm concentration of the effective component; 7 days after spraying; green house of 28° C.
Method: About 30 bred Myzus persicae resistant to organophosphorous agents and carbamates were inoculated per 1 seedling of eggplant planted in a vinyl pot of 6 cm diameter. One day after the inoculation, a sufficient amount of a diluted aqueous solution of a prescribed concentration of an active compound prepared as mentioned above, was sprayed by using a spray gun. After spraying it was placed in a green house of 28° C. and the rate of death was calculated 7 days after the spraying. Test was repeated twice.

SMILES: CCS(=O)(=O)CC(C)NC(=O)c1c(I)cccc1C(=O)Nc1ccc(Cn2nc(C(F)(F)F)nc2C(F)(F)F)cc1C (stereo not drawn) [compound 222]
- controlling effect, rate of death [1]: 100%
- controlling effect, rate of death [2]: 100%
- controlling effect, rate of death [3]: 100%

SMILES: Cc1cc(Cn2nc(C(F)(F)F)nc2C(F)(F)F)ccc1NC(=O)c1cccc(Br)c1C(=O)NC(C)(C)CS(C)(=O)=O [compound 176]
- controlling effect, rate of death [1]: 100%
- controlling effect, rate of death [2]: 100%
- controlling effect, rate of death [3]: 100%

SMILES: CSCC(C)NC(=O)c1c(I)cccc1C(=O)Nc1ccc(Cn2nc(C(F)(F)F)nc2C(F)(F)F)cc1C (stereo not drawn) [compound 214]
- controlling effect, rate of death [1]: 100%
- controlling effect, rate of death [2]: 100%
- controlling effect, rate of death [3]: 100%

SMILES: Cc1cc(Cn2nc(C(F)(F)F)nc2C(F)F)ccc1NC(=O)c1cccc(I)c1C(=O)NC(C)CS(C)(=O)=O (stereo not drawn) [compound 243]
- controlling effect, rate of death [3]: 100%

SMILES: CSCC(C)NC(=O)c1c(I)cccc1C(=O)Nc1ccc(Cn2nc(C(F)(F)F)nc2C(F)F)cc1C (stereo not drawn) [compound 239]
- controlling effect, rate of death [3]: 100%

SMILES: CSCC(C)NC(=O)c1c(Br)cccc1C(=O)Nc1ccc(Cn2nc(C(F)(F)F)nc2C(F)(F)F)cc1C (stereo not drawn) [compound 178]
- controlling effect, rate of death [3]: 100%

SMILES: Cc1cc(C(C)n2nc(C(F)(F)F)nc2C(F)(F)F)ccc1NC(=O)c1cccc(Cl)c1C(=O)N[C@@H](C)C[S+](C)[O-] (stereo partly drawn) [compound 569]
- controlling effect, rate of death [3]: 100%

SMILES: Cc1cc(Cn2nc(C(F)C(F)(F)F)nc2C(F)(F)F)ccc1NC(=O)c1cccc(Cl)c1C(=O)N[C@@H](C)C[S+](C)[O-] (stereo partly drawn) [compound 797]
- controlling effect, rate of death [3]: 100%

SMILES: CSCC(C)NC(=O)c1c(I)cccc1C(=O)Nc1ccc(Cn2nc(C(F)(F)F)cc2OC(F)F)cc1C (racemic) [compound 103]
- controlling effect, rate of death [1]: 100%
- controlling effect, rate of death [2]: 100%

SMILES: Cc1cc(Cn2cc(C(F)(F)C(F)(F)C(F)(F)F)c(C(F)(F)C(F)(F)F)n2)ccc1NC(=O)c1cccc(Cl)c1C(=O)N[C@@H](C)CS(C)(=O)=O [compound 659]
- controlling effect, rate of death [1]: 100%
- controlling effect, rate of death [2]: 100%

SMILES: CSCC(C)NC(=O)c1c(I)cccc1C(=O)Nc1ccc(Cn2nc(C(F)(F)F)cc2C(F)(F)F)cc1C (racemic) [compound 85]
- controlling effect, rate of death [1]: 100%
- controlling effect, rate of death [2]: 100%

SMILES: CCS(=O)(=O)CC(C)NC(=O)c1c(I)cccc1C(=O)Nc1ccc(Cn2nc(C(F)(F)F)cc2C(F)(F)F)cc1C (stereo not drawn) [compound 93]
- controlling effect, rate of death [1]: 100%
- controlling effect, rate of death [2]: 100%

SMILES: Cc1cc(Cn2nc(C(F)(F)F)cc2C(F)(F)F)ccc1NC(=O)c1cccc(Cl)c1C(=O)NC(C)(C)C[S+](C)[O-] (racemic) [compound 9]
- controlling effect, rate of death [1]: 100%
- controlling effect, rate of death [2]: 100%

SMILES: CCSCC(C)NC(=O)c1c(I)cccc1C(=O)Nc1ccc(Cn2nc(C(F)(F)F)cc2C(F)(F)F)cc1C (stereo not drawn) [compound 91]
- controlling effect, rate of death [1]: 100%
- controlling effect, rate of death [2]: 100%

SMILES: Cc1cc(Cn2nc(C(F)(F)F)nc2C(F)(F)F)ccc1NC(=O)c1cccc([N+](=O)[O-])c1C(=O)N[C@@H](C)CS(C)(=O)=O [compound 548]
- controlling effect, rate of death [1]: 100%
- controlling effect, rate of death [2]: 100%

SMILES: Cc1cc(Cn2nc(C(F)(F)F)cc2C(F)(F)F)ccc1NC(=O)c1cccc(I)c1C(=O)NC(C)C[S+](C)[O-] (mixture of isomers) [compound 87]
- controlling effect, rate of death [1]: 100%
- controlling effect, rate of death [2]: 100%
